Experimental findings from ChEMBL document CHEMBL1201862, “PubChem BioAssay data set” (2004) are described below.

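Interpolation was linear, between the two tested concentrations surrounding the appropriate level; five concentrations were tested over 48 hours in 96-well plates. GI50: concentration for 50% inhibition of growth.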 Activity calls are given as the source filed them. No stated cut-off is given here; in the data, active = GI50 up to about 1.1 µM and inactive = higher.

Among the test systems are K562; MOLT-4; SF-295; A498; MDA-MB-435; 786-0; KM12; SF-539; SW-620; UACC-257; RPMI-8226; Malme-3M; HCT-15; SK-OV-3; OVCAR-5; SNB-19; IGROV-1; SF-268; COLO 205; EKVX.
Holding throughout (assay): NCI tumour cell line growth inhibition, 48 h

For the compound `C[n+]1ccccc1/C=C/c1ccc2c(c1)OCO2`, the GI50 with K562, in the assay with MOLT-4, in the assay with SF-295, in the assay with A498, with MDA-MB-435 and in the assay with 786-0 was > 10 µM (inactive) throughout. For the same compound, the GI50 with KM12, with SF-539, with SW-620, with UACC-257, in the assay with RPMI-8226 and in the assay with Malme-3M was > 10 µM (inactive) in each case. Further, the GI50 in the assay on HCT-15 was over 10 µM; in the assay with SK-OV-3, > 10 µM (inactive); in the assay on OVCAR-5, > 10 µM (inactive); in the assay with SNB-19 it was > 10 µM (inactive); with IGROV-1, > 10 µM (inactive); in the assay with SF-268, > 10 µM (inactive). For the same compound, the GI50 was 4.55 µM (inactive) in the assay with COLO 205 and > 10 µM (inactive) in the assay with EKVX.

For `COC1(OC)CCc2c(sc3ncnc(Nc4cccc(Br)c4)c23)C1`, the GI50 was 26.2 µM (inactive) in the assay with K562; 14.2 µM (inactive) with MOLT-4; 72.8 µM (inactive) in the assay on SF-295; > 100 µM (inactive) with A498; 62.2 µM (inactive) in the assay on MDA-MB-435; 25.1 µM (inactive) in the assay with 786-0. Moreover, the GI50 in the assay with KM12 was 33.4 µM (inactive); with SF-539, > 100 µM (inactive); with SW-620, 21.7 µM (inactive); in the assay with UACC-257, 87.3 µM (inactive); in the assay with RPMI-8226, 17 µM (inactive); in the assay on Malme-3M, 41.5 µM (inactive). The GI50 in the assay on HCT-15 was 30.8 µM; in the assay with SK-OV-3, > 100 µM (inactive); in the assay with OVCAR-5, 20.7 µM (inactive); in the assay with SNB-19, 35.5 µM (inactive); in the assay with IGROV-1, 16.7 µM (inactive); in the assay on SF-268 it was 69.5 µM (inactive). The GI50 with COLO 205 was 35.4 µM (inactive); with EKVX it was 11.2 µM (inactive).

`N#CCOc1cccc(C2(N3CC=CCC3)CCCCC2)c1`: the GI50 with K562 was 43 µM (inactive); in the assay with MOLT-4, 56.6 µM (inactive); in the assay on SF-295, > 100 µM (inactive); with A498, > 100 µM (inactive); in the assay on MDA-MB-435, > 100 µM (inactive); in the assay on 786-0, > 100 µM (inactive). The GI50 was > 100 µM (inactive) with KM12; > 100 µM (inactive) in the assay on SF-539; 94 µM (inactive) with SW-620; 72.3 µM (inactive) with UACC-257; 77.6 µM (inactive) with RPMI-8226; > 100 µM (inactive) in the assay on Malme-3M. The GI50 with HCT-15 is over 100 µM; in the assay with SK-OV-3, > 100 µM (inactive); in the assay on OVCAR-5 it was > 100 µM (inactive); with SNB-19, > 100 µM (inactive); in the assay with IGROV-1, > 100 µM (inactive); with SF-268 it was > 100 µM (inactive). Moreover, the GI50 in the assay with COLO 205 and in the assay with EKVX was > 100 µM (inactive) throughout.

For `CC[C@H](C)[C@H](NC(=O)[C@@]1(O)[C@H](O)[C@]2(CC)C=CCN3CC[C@@]4(c5cc(Br)c(OC)cc5N(C)[C@@H]14)[C@@H]32)C(=O)OC`, the GI50 in the assay on K562 was 67.1 µM (inactive); with MOLT-4, 22.8 µM (inactive); in the assay on SF-295, 33.8 µM (inactive); in the assay with A498, 25.3 µM (inactive); with MDA-MB-435, 20.5 µM (inactive); in the assay with 786-0, 63.5 µM (inactive). Besides, the GI50 in the assay with KM12 was 27.2 µM (inactive); with SF-539 it was 27.5 µM (inactive); with SW-620 it was 29 µM (inactive); in the assay on UACC-257, 24.9 µM (inactive); in the assay on RPMI-8226 it was 14.2 µM (inactive); in the assay with Malme-3M it was 21.9 µM (inactive). Also, the GI50 is 25.7 µM with HCT-15; 38 µM (inactive) in the assay on SK-OV-3; > 100 µM (inactive) with OVCAR-5; 64.3 µM (inactive) in the assay on SNB-19; 26.3 µM (inactive) in the assay with IGROV-1; 27.7 µM (inactive) with SF-268. Further, the results for the GI50 with COLO 205 and with EKVX were 14 µM (inactive) and 40.2 µM (inactive), respectively.

On to `COc1ccc(SCc2cc(OC)ccc2OC)cc1`, for which the GI50 is 4.24 µM (inactive) in the assay with K562; 8.24 µM (inactive) with MOLT-4; 32.2 µM (inactive) in the assay on SF-295; 18.7 µM (inactive) in the assay on A498; 2.75 µM (inactive) in the assay on MDA-MB-435; > 85.5 µM (inactive) with 786-0. Also, the GI50 was 4.23 µM (inactive) in the assay with KM12; 39.2 µM (inactive) in the assay with SF-539; 10.6 µM (inactive) in the assay with SW-620; 74 µM (inactive) with UACC-257; 34 µM (inactive) with RPMI-8226; 55.6 µM (inactive) with Malme-3M. Also, the GI50 in the assay with HCT-15 is 6.58 µM; with SK-OV-3, 12 µM (inactive); in the assay on OVCAR-5, 24.5 µM (inactive); with SNB-19, 34 µM (inactive); with IGROV-1, 15.9 µM (inactive); in the assay with SF-268, > 56.6 µM (inactive). The values for the GI50 in the assay with COLO 205 and in the assay on EKVX were 15.6 µM (inactive) and > 56.1 µM (inactive), respectively.

For `O=C1CC(c2cccc([N+](=O)[O-])c2)C2(C(=O)NC(=S)NC2=O)C(c2cccc([N+](=O)[O-])c2)C1` (stereo not given), the GI50 was 52 µM (inactive) in the assay with K562; 66.4 µM (inactive) in the assay on MOLT-4; 34 µM (inactive) in the assay on SF-295; > 100 µM (inactive) with A498; 23.5 µM (inactive) in the assay on MDA-MB-435; 34.8 µM (inactive) in the assay on 786-0. The GI50 is 26.6 µM (inactive) in the assay with KM12; 40.6 µM (inactive) in the assay with SF-539; 50.7 µM (inactive) with SW-620; 89.7 µM (inactive) in the assay on UACC-257; 59.7 µM (inactive) with RPMI-8226; 11.6 µM (inactive) in the assay on Malme-3M. Further, the GI50 in the assay with HCT-15 is 25.5 µM; with SK-OV-3 it was 32.7 µM (inactive); in the assay with OVCAR-5 it was 39.9 µM (inactive); with SNB-19, 21.8 µM (inactive); in the assay with IGROV-1, 31.3 µM (inactive); in the assay with SF-268 it was 15.9 µM (inactive). Moreover, the GI50 with COLO 205 is 24.4 µM (inactive); in the assay on EKVX, 20.4 µM (inactive).
